# Experimental data from ChEMBL document CHEMBL3638904, “Pyridine-2-derivatives as smoothened receptor modulators” (2015).
# Target: Protein smoothened (Homo sapiens, UniProt Q99835)
# Assay: Radioligand Competition Binding Assay: For the binding competition assay, 100 μL of Assay Buffer was added to all the wells of a 96 well GF/B filter plate (Millipore MultiScreen-HTS-FB cat# MSFBN6B50) for 10 minutes to pre-wet the filter prior to evacuation of the buffer (8 inches Hg for 8 seconds). To the pre-wet wells is added: 20 μL of Assay Buffer, 10 μL diluted test agent, 20 μL of a tritiated Smo antagonist (15 nM stock solution), and 50 μL of membrane preparation (40 μg total protein per well). The plates are sealed and mixed at room temperature for 5 min, incubated at room temperature for 2 hours, then washed 5 times with 100 μL/each of wash buffer and vacuum dried for 8 seconds at 8 inches Hg. The plate is then dried for one hour in a 60° C. oven prior to the addition of 45 μL of Microscint 20 (Packard, #6013621) to each well and incubation at RT for 30 minutes to 1 hour. The plate is counted in a TopCount scintillation counter (Perkin Elmer).
# Sequence of Protein smoothened (Q99835 whole entry): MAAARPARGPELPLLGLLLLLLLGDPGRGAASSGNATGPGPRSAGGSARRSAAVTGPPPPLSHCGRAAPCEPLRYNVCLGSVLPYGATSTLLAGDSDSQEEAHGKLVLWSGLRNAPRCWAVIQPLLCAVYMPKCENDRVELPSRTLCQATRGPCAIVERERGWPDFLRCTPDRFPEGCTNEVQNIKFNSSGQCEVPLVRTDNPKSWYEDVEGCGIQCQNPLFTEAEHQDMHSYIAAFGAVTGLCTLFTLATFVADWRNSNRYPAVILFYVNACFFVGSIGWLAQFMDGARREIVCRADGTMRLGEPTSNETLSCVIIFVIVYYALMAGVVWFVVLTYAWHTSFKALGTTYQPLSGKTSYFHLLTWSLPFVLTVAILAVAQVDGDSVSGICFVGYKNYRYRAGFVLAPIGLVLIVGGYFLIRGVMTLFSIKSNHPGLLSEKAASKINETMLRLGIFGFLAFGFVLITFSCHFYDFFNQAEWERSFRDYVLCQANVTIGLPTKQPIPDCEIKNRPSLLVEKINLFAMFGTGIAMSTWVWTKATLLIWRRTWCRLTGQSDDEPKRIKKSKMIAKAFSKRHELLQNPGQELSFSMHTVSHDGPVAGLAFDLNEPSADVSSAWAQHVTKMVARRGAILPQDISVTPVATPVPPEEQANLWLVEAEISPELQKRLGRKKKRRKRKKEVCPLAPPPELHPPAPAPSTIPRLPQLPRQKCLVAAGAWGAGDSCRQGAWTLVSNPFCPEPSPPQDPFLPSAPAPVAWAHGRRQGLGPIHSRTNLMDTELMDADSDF
row,Structure (SMILES),IC50
1,O=S(=O)(NC1CCN(c2ccc(Cl)c(-c3ccccn3)n2)CC1)C1CC1,16.5 nM
2,Cc1ccc(-c2nc(N3CCN(C(=O)CCS(C)(=O)=O)CC3)ccc2Cl)nc1,22.5 nM
3,Cc1cccnc1-c1cc(N2CCN(c3ncc(Br)cn3)CC2)ncc1Cl,40.3 nM
4,O=C(CCO)NC1CCN(c2ccc(Cl)c(-c3ccccn3)n2)CC1,110 nM
5,Cc1cccnc1-c1cc(N2[C@@H]3CC[C@H]2CN(C(=O)CC(C)(C)O)C3)ncc1Cl,92.2 nM
6,Cc1cc(F)cnc1-c1cc(N2CCN(C(=O)CCS(C)(=O)=O)CC2)ncc1Cl,7.11 nM
